Data as given in patent US20210361600A1, “METHODS FOR INDUCING CHONDROGENESIS” (THE SCRIPPS RESEARCH INSTITUTE, priority 2017, published 2021).
“And” between values parts separate entries of the source, which are not always exact repeats. Identical values can stand only once. Like-named read-outs stand apart in the source and are kept apart here.

Experiments:
Human MSCs = experiment: Human chondrocyte differentiation assay; type: cell-based; conditions: 7 days; type II collagen, Sox9 and COMP immunostaining
Method: Human MSCs (50,000) were plated into each well of a 96-well plate and cultured overnight. […] The cells were fixed with 10% formalin solution at room temperature for 10 min, and immunostained using antibodies specific for type II collagen (Abcam), Sox9 (Santa Cruz) and cartilage oligomeric matrix protein (COMP, Santa Cruz), and fluorescently labeled secondary antibodies (Li-Cor). The total intensity of the staining was measured using Oddyssey CLx imaging system (Li-Cor). Vehicle (DMSO) was used as control to determine the basal level of chondrocyte differentiation. The result is shown in Table 1 [A: >50% increase in staining intensity compared to vehicle control; B: 30-50% increase in staining intensity compared to vehicle control].

[1] = Final dose PK in the canine osteoarthritis study; type: in vivo, Beagle dogs
Method: Acetonitrile, water (Optima, LC/MS Grade) and formic acid, 99+% (Optima, LC/MS Grade) were purchased from Fisher Scientific. […] Chromatography HPLC column, Luna, 5 um C18 (2), 50×2.0 mm and its guard security cartridge and holder were purchased from Phenomenex. HPLC (1100 Series) was purchased from Agilent. The Mass Spectrometer system, API 3000 was purchased from SCIEX. Separation was performed on a reversed phase C18 column with a gradient elution using mobile phases of 0.1% formic acid in water (A) and 0.1% formic acid in acetonitrile (B) with flow rate at 0.6 mL/min.
Supernatant was then diluted with 0.1% formic acid in water solvent and injected onto LC-MS-MS system.
All animals were exercised 5 days a week for an hour for the duration of the study. At study day 10/11, animals began receiving weekly injections of either compound or vehicle into the surgerized joint. Blood samples were also taken pre-dose for all animals for compound determination. Animals received doses at day 10, 17, 24, 31, 38, and 45 post surgery. All intraarticular doses were standardized to 0.5 mL injections into the joint capsule via injection through the patellar ligament.
Female Beagles underwent medial meniscal tear surgery to induce osteoarthritis.

FLNA FC-1 fragment = experiment: In vitro FLNA binding (competition with biotin-KGN-azide probe); conditions: 25 μM compound A, 0.5 μM BKA, FC-1 fragment 10 μg/mL, 1 hr
Description: The biological mechanism of kartogenin (KGN) was elucidated through synthesis of a biotin-kartogenin-azide (BKA) affinity probe which was used as a tool to identify the subsequent interaction with FLNA.

SOX9 = experiment: In vitro chondrogenesis, transcript level by qPCR; type: cell-based, human; conditions: for Induction of SOX9: 7-day treatment
Method: (§1) The RNA was exacted using RNeasy kit following the manufacturer's protocol. cDNA was synthesized using SuperScript III first strand synthesis kit and the transcript levels of proteoglycan 4 (PRG4), sex-determining region Y-Box 9 ([…]) and cartilage-oligo matrix protein (COMP) were determined using Taqman gene expression assays (probes) from ThermoFisher.
(§2) ΔΔCT method was applied to calculate the relative abundance of each gene using ([…] as normalizing control using ViiA 7 RUO software (ThermoFisher). The abundance of each gene of each sample was expressed as fold over DMSO-treated controls. n=3. Dose response for each marker gene was analyzed using GraphPad Prism 7 software.

proteoglycan 4 (PRG4) = experiment: In vitro chondrogenesis, transcript level by qPCR; type: cell-based, human; conditions: for Induction of PRG4: 7-day treatment
Method: as §1, §2

[2] = Intra-articular single dose pharmacokinetics study in rat; type: in vivo; conditions: for concentration in the knee: 1.05 μg/knee
in vivo [3] = conditions: Crl:CD(SD), rat
[4] = dog, in vivo
in vivo [5] = conditions: male, beagle, dog, 70 μg/knee/week
[6] = Intra-articular acute toxicity study in the Beagle dog (toxicokinetics); conditions: for Tlast / AUC(0-t) / Cmax: male dogs, plasma
[7] = female Beagles, 35 μg IA weekly, after 6th dose, plasma, individual animals 1-6
[8] = rat, plasma, 1.05 ug, single IA dose 1.05 μg/knee
[9] = dose increment of 2.9 fold (from 35 to 100 ng)
[10] = single IA 35 μg/knee, individual animals 41M, 42M
[11] = single IA 100 μg/knee, individual animals 43M, 44M
[12] = single IA 200 μg/knee, individual animals 45M, 46M

COCCc1ccc(NC(=O)c2ccccc2NS(C)(=O)=O)cc1 [Compound A, N-(4-(2-methoxyethyl)phenyl)-2-(methylsulfonamido)benzamide]
Biological Activity (increase in staining intensity compared to vehicle control) (Human MSCs): A (>50% increase in staining intensity compared to vehicle control) | plasma exposure after the final dose ([1]; 1 hour after IA administration): undetectable | Cmax ([1]; female Beagles, 35 μg (0.035 mg/knee) IA weekly, after 6th dose, plasma, individual animals 1-6): 2.22 ng/mL and 2.64 ng/mL and 1.87 ng/mL and 2.26 ng/mL and 1.08 ng/mL and 1.54 ng/mL | Tlast ([1]; female Beagles, 35 μg IA weekly, after 6th dose, plasma, Mean): 2.3 h | AUC 0-τ [1, 7]: 2.28 ng·h/mL and 3.14 ng·h/mL and 2.12 ng·h/mL and 3.58 ng·h/mL and 1.15 ng·h/mL and 1.87 ng·h/mL | Tlast [1, 7]: 2.0 h (5×) and 4.0 h | AUC ([1]; female, beagle, dog, plasma, 0.035 mg/knee, female Beagles, 35 μg IA weekly, after 6th dose, plasma, Mean, read-out: AUC 0-τ): 2.36 ng·h/mL | Cmax ([1]; female, beagle, dog, plasma, 0.035 mg/knee, female Beagles, 35 μg IA weekly, after 6th dose, plasma, Mean, read-out: Cmax): 1.94 ng/mL | ability of the biotin-KGN-azide probe to bind to the FC-1 fragment of FLNA (FLNA FC-1 fragment): inhibited | Induction of SOX9 (SOX9; 0.457 nM): 1.022 ± 0.231 fold increase | Induction of SOX9 (SOX9; 1.37 nM): 1.002 ± 0.260 fold increase | Induction of SOX9 (SOX9; 4.11 nM): 3.296 ± 0.719 fold increase | Induction of SOX9 (SOX9; 12.3 nM): 2.505 ± 0.242 fold increase | Induction of SOX9 (SOX9; 37.0 nM): 1.768 ± 0.264 fold increase | Induction of SOX9 (SOX9; 111 nM): 1.977 ± 0.721 fold increase | Induction of SOX9 (SOX9; 333 nM): 4.193 ± 0.765 fold increase | EC50 (SOX9; 168 h, primary human MSCs, 7 days, read-out: EC50 (SOX9 induction)): ~2.2 nM | Induction of PRG4 (proteoglycan 4 (PRG4); 0.457 nM): 1.082 ± 0.493 fold increase | Induction of PRG4 (proteoglycan 4 (PRG4); 1.37 nM): 0.582 ± 0.513 fold increase | Induction of PRG4 (proteoglycan 4 (PRG4); 4.11 nM): 1.795 ± 0.561 fold increase | Induction of PRG4 (proteoglycan 4 (PRG4); 12.3 nM): 2.226 ± 0.378 fold increase | Induction of PRG4 (proteoglycan 4 (PRG4); 37.0 nM): 1.204 ± 0.360 fold increase | Induction of PRG4 (proteoglycan 4 (PRG4); 111 nM): 1.024 ± 0.700 fold increase | Induction of PRG4 (proteoglycan 4 (PRG4); 333 nM): 2.22 ± 0.960 fold increase | Induction of PRG4 (proteoglycan 4 (PRG4); 1000 nM): 2.134 ± 0.785 fold increase | EC50 (proteoglycan 4 (PRG4); 168 h, primary human MSCs, 7 days, read-out: EC50 (PRG4 induction)): ~3.9 nM | concentration in the knee ([2]; 120 minutes after single IA injection): LLQ | concentration in the knee ([2]; immediately after single IA injection): 925.5 ng/mL | AUC(0-inf) [2, 8]: 33.9 ng·h/mL | Cmax [2, 8]: 53.3 ng/mL | half-life ([2]; rat, plasma, 1.05 ug, single IA dose 1.05 μg/knee, read-out: plasma t1/2 (converted)): 28.9 min | time up to which quantifiable in the plasma of all animals (in vivo [3]; both): at least 2 hours | AUC(0-t) (in vivo [3]; female, 70 ug/kg): 20.3 ng·h/mL | Cmax (in vivo [3]; female, 70 ug/kg): 11.6 ng/mL | AUC(0-t) (in vivo [3]; female, 70 ug/kg, AUC0-t): 18.5 ng·h/mL | Cmax (in vivo [3]; female, 70 ug/kg, Cmax): 19.5 ng/mL | AUC(0-t) (in vivo [3]; female, 140 ug/kg): 52.3 ng·h/mL | Cmax (in vivo [3]; female, 140 ug/kg): 34.5 ng/mL | AUC(0-t) (in vivo [3]; female, 140 ug/kg, AUC0-t): 43.5 ng·h/mL | Cmax (in vivo [3]; female, 140 ug/kg, Cmax): 42.3 ng/mL | AUC(0-t) (in vivo [3]; female, 200 ug/kg): 64.9 ng·h/mL | AUC(0-t) (in vivo [3]; female, 200 ug/kg, AUC0-t): 39.3 ng·h/mL | Cmax (in vivo [3]; female, 200 ug/kg, Cmax): 59.8 ng/mL | AUC(0-t) (in vivo [3]; male, 70 ug/kg): 8.14 ng·h/mL | Cmax (in vivo [3]; male, 70 ug/kg): 8.41 ng/mL | AUC(0-t) (in vivo [3]; male, 70 ug/kg, AUC0-t): 8.33 ng·h/mL | Cmax (in vivo [3]; male, 70 ug/kg, Cmax): 8.24 ng/mL | AUC(0-t) (in vivo [3]; male, 140 ug/kg): 18.4 ng·h/mL | Cmax (in vivo [3]; male, 140 ug/kg): 18.6 ng/mL | AUC(0-t) (in vivo [3]; male, 140 ug/kg, AUC0-t): 15.4 ng·h/mL | Cmax (in vivo [3]; male, 140 ug/kg, Cmax): 23.5 ng/mL | AUC(0-t) (in vivo [3]; male, 200 ug/kg): 35.5 ng·h/mL | AUC(0-t) (in vivo [3]; male, 200 ug/kg, AUC0-t): 22.9 ng·h/mL | Cmax (in vivo [3]; male, 200 ug/kg, Cmax): 33.9 ng/mL | time up to which quantifiable in the plasma of all animals ([4]; both, beagle, iv, 1.25 mg/kg): at least 12 hours | gender differences in systemic exposure (Cmax and AUC0-t) [4]: no significant gender differences | differences in systemic exposure following single and repeat weekly IV administration ([4]; iv): no significant differences | Cmax ([4]; female, Beagle, iv, 0.125 mg/kg): 209 ng/mL | Cmax ([4]; female, Beagle, iv, 0.6 mg/kg): 1190 ng/mL | AUC(0-t) ([4]; female, Beagle, iv, 1.25 mg/kg): 2300 ng·h/mL | Cmax ([4]; female, Beagle, iv, 1.25 mg/kg): 2480 ng/mL | AUC(0-t) ([4]; male, beagle, iv, 0.125 mg/kg): 211 ng·h/mL | Cmax ([4]; male, beagle, iv, 0.125 mg/kg): 197 ng/mL | AUC(0-t) ([4]; male, beagle, iv, 0.6 mg/kg): 1400 ng·h/mL | Cmax ([4]; male, beagle, iv, 0.6 mg/kg): 1140 ng/mL | AUC(0-t) ([4]; male, beagle, iv, 1.25 mg/kg): 2510 ng·h/mL | Cmax ([4]; male, beagle, iv, 1.25 mg/kg): 2150 ng/mL | AUC(0-t) (in vivo [5]): 13.8 ng·h/mL | concentrations in synovial fluid samples ([6]; at study termination, below the LLQ): < 0.5 ng/mL | increase in mean AUC0-t [6, 9]: 0.7 fold | increase in mean Cmax [6, 9]: 0.7 fold | increase in mean AUC0-t ([6]; dose increment of 5.7 fold): approximately 1.5 fold | increase in mean Cmax ([6]; dose increment of 5.7 fold): approximately 1.5 fold | Tlast ([6]; single IA 35 μg/knee, Mean): 4.00 h | AUC(0-t) [6, 10]: 5.41 ng·h/mL | Cmax [6, 10]: 2.21 ng/mL | Tlast [6, 10]: 4.00 h | Tlast ([6]; single IA 100 μg/knee, Mean): 4.00 h | AUC(0-t) [6, 11]: 11.7 ng·h/mL | Cmax [6, 11]: 4.75 ng/mL | Tlast [6, 11]: 4.00 h | Tlast ([6]; single IA 200 μg/knee, Mean): 4.00 h | AUC(0-t) [6, 12]: 9.60 ng·h/mL | Cmax [6, 12]: 3.21 ng/mL | Tlast [6, 12]: 4.00 h | AUC(0-t) ([6]; male, beagle, dog, 35 μg/knee, AUC0-t, single IA 35 μg/knee, Mean): 5.31 ng·h/mL | AUC(0-t) ([6]; male, beagle, dog, 35 μg/knee, AUC0-t, single IA 35 μg/knee, individual animals 41M, 42M): 5.21 ng·h/mL | Cmax ([6]; male, beagle, dog, 35 μg/knee, Cmax, single IA 35 μg/knee, Mean): 2.17 ng/mL | Cmax ([6]; male, beagle, dog, 35 μg/knee, Cmax, single IA 35 μg/knee, individual animals 41M, 42M): 2.14 ng/mL | AUC(0-t) ([6]; male, beagle, dog, 100 μg/knee, AUC0-t, single IA 100 μg/knee, Mean): 12.3 ng·h/mL | AUC(0-t) ([6]; male, beagle, dog, 100 μg/knee, AUC0-t, single IA 100 μg/knee, individual animals 43M, 44M): 13 ng·h/mL | Cmax ([6]; male, beagle, dog, 100 μg/knee, Cmax, single IA 100 μg/knee, Mean): 4.59 ng/mL | Cmax ([6]; male, beagle, dog, 100 μg/knee, Cmax, single IA 100 μg/knee, individual animals 43M, 44M): 4.43 ng/mL | AUC(0-t) ([6]; male, beagle, dog, 200 μg/knee, AUC0-t, single IA 200 μg/knee, Mean): 8.89 ng·h/mL | AUC(0-t) ([6]; male, beagle, dog, 200 μg/knee, AUC0-t, single IA 200 μg/knee, individual animals 45M, 46M): 8.18 ng·h/mL | Cmax ([6]; male, beagle, dog, 200 μg/knee, Cmax, single IA 200 μg/knee, Mean): 3.01 ng/mL | Cmax ([6]; male, beagle, dog, 200 μg/knee, Cmax, single IA 200 μg/knee, individual animals 45M, 46M): 2.81 ng/mL
